Read-outs that look alike come from different tables or passages of the source.
Columns and labels:
[1] = system: CYP1A; test: in vitro; settings: nude, mouse; for activity at 10 min, 1 µM / activity at 10 min, 10 µM / activity at 10 min, 100 µM: pH 7.8, dermal CYP1A activity (% of control group); for inhibition at 10 min, 100 µM: pH 7.8, inhibition of dermal CYP1A activity
Source text: (§1) Nude mice were sacrificed by decapitation.
(§2) The precipitate containing the microsomes was obtained.

[2] = system: CYP1A; test: in vitro; settings: nude, mouse, pH 7.8
Method: (§3) Nude mice were sacrificed by decapitation. The skin and liver were immediately removed and kept in ice bath or 4° C. […] Connective tissue, blood, and fat were carefully removed from the tissue. Excess water content was removed from the homogenized tissue by tissue papers before the tissue was weighed.
(§4) The suspension of homogenized tissue in potassium chloride solution was transferred into a Teflon pestle-glass homogenizer for homogenization for six (6) times. Then, potassium chloride solution was added into the homogenized suspension to bring the volume to about four (4) times of the homogenized suspension. The diluted suspension was 5 transferred into a centrifuge tube and centrifuged at 4° C., 9000 xg, for twenty (20) minutes. The supernatant containing microsomes from skin or liver tissue and other soluble substance were removed and the volume of the supernatant was brought up to four (4) times of the weight of the tissue by adding potassium chloride solution. The diluted supernatant was transferred into a centrifuge tube and centrifuged at 4° C., 100,000 xg, for one (1) hour (Beckman L8-80M). The precipitate containing the microsomes was obtained. Potassium chloride solution was added into the precipitate to bring the volume up to four (4) times of the weight of the tissue, and the suspension was centrifuged at 4° C., 100,000 xg for one (1) hour, to obtain the washed microsomes, which were stored at −78° C. in 0.1M KH2PO4-K2HPO4 buffer (pH=7.4).
(§5) The enzymatic activity of CYP1A was determined based on the activity of 7-ethoxyresorufin-O-deethylase (i.e., for CYP1A) and 7-methoxyresorufin-O-demethylase (i.e., CYP1A2). […] Except for the blank group, the reaction was triggered by adding 0.54 μM NADPH. In the test tube (16×100 mm), the reaction was carried out for ten (10) minutes at constant temperature (37° C.) with vibration and without light Methanol 2.5 ml was added into the reaction mixture to stop the reaction. Protein precipitate was removed from the reaction mixture by centrifuging the reaction mixture at 180 xg for ten (10) minutes. The supernatant was tested for florescent intensity with 550 nm as the excitation wavelength and 585 nm the emission wavelength. The florescent intensity was compared with 0.01 μM-0.1 μM standard Rhodamine B solution to obtain the reading of the CYP1A enzyme activity.

[3] = system: liver CYP1A
Method: as §3, §4, §5

[4] = system: dermal CYP1A; test: in vitro
Source text: as §1, §2

activity at 10 min, 1 µM [1] [%] | activity at 10 min, 10 µM [1] [%] | activity at 10 min, 100 µM [1] [%] | inhibition at 10 min, 100 µM [1] [%] | activity at 10 min, 1 µM [2] [%] | activity at 10 min, 100 µM [2] [%] | liver CYP1A activity (% of control group) ([3]; 1 µM) [%] | liver CYP1A activity (% of control group) ([3]; 10 µM) [%] | liver CYP1A activity (% of control group) ([3]; 100 µM) [%] | dermal CYP1A activity (% of control group) ([4]; 1 µM) [%] | dermal CYP1A activity (% of control group) ([4]; 10 µM) [%] | dermal CYP1A activity (% of control group) ([4]; 100 µM) [%] | activity at 10 min, 10 µM [2] [%] | SMILES
103 | 97.2 | 76.4 | ~24 | 118 | 53.5 |  |  |  |  |  |  |  | O=c1cc(-c2ccc(O)cc2)oc2cc(O)cc(O)c12 [Apigenin]
 |  |  |  |  |  | 75.00 | 22.78 | 13.79 | 27.41 | 24.00 | 3.76 |  | O=c1cc(-c2ccccc2)oc2ccc3ccccc3c12 [Beta-NF, β-naphthoflavone]
117 | 110 | 86.6 | ~13 | 109 | 101 |  |  |  |  |  |  | 103 | O=C(O)/C=C/c1ccccc1 [Trans-cinnamic acid]

From patent US20030166583A1, “Dermal cytochrome P450 1A inhibitors and enhancers” (priority 2002, published 2003)
